In patent US7282593B2, “Withanamide and withanolide compositions and method of use thereof” (Board of Trustees of Michigan State University, priority 2003, dated 2007):

Tested on: lipid peroxidation in large unilamellar vesicles (LUVs)
Test: Inhibition of lipid peroxidation in large unilamellar vesicles (liposome) model system
[1] = at 1 μg/mL, vs DMSO control at 21 min
[2] = at 50 μg/mL, vs DMSO control at 21 min
[3] = at 0.5 μg/mL, vs DMSO control at 21 min
[4] = at 100 μg/mL, vs DMSO control at 21 min
[5] = at 10 μg/mL, vs DMSO control at 21 min

Method: Fluorescence intensity was monitored for 21 minutes at intervals of 3 minutes. The percentage of inhibition represented was calculated with respect to DMSO control at 21 min. The concentrations of compounds tested were 1-3, 5 and 9 at 1 μg/mL; 4, 6-8 at 0.5 μg/mL; 15 at 100 μg/mL; 16 at 50 μg/mL; 17 at 10 μg/mL. Commercial antioxidants BHA, BHT and TBHQ were tested at 1 μg/mL. Data represented indicates the mean ± one standard deviation (n=2).
Compounds tested were 10 and 13 at 100 μg/mL; 12 and 11 were at 10 and 50 μg/mL, respectively. Data represented indicates the mean ± one standard deviation (n=2).
The liposome suspension was prepared by mixing the phospholipid 1-stearoyl-2-linoleoyl-sn-glycero-3-phosphocoline (SLPC) and a fluorescence probe [3-[p-(6-phenyl)-1,3,5-hexatrienylph-enylpropionic acid (DPH-PA). The final assay volume was 2 mL and consisted HEPES (100 μL), 1M NaCl (200 μL), N2-sparged water (1.64 ml), test sample or DMSO (20 μL) and liposome suspension (20 μL). The peroxidation was initiated by the addition of 20 μl of FeCl2. […] The fluorescence was monitored at 0, 1, 3 and every 3 min up to 21 min using a Turner Model 450 Digital fluorometer. The decrease in fluorescence intensity over the time (21 min) indicated the rate of peroxidation. The percentage of lipid peroxidation was calculated with respect to DMSO solvent control. Stock solutions of the samples were prepared at 100 μg/ml and diluted further for the assay.

For Withanamide A [Compound 1], which “inhibition of lipid peroxidation” value [1] is on record?
Its value is 98%.

`CC1=C(C)C(=O)O[C@@H]([C@](C)(O)[C@H]2CC[C@H]3[C@@H]4CC=C5C[C@@H](O[C@@H]6O[C@H](CO[C@@H]7O[C@H](CO)[C@@H](O)[C@H](O)[C@H]7O)[C@@H](O)[C@H](O)[C@H]6O)C[C@H](O)[C@]5(C)[C@H]4CC[C@]23C)C1` [Compound 11, withanoside VI] was tested. Which “inhibition of lipid peroxidation” value [2] did it give?
Its value is 86%.

What about the “lipid peroxidation inhibitory activity” value (at 50 ppm) of the same compound?
Its value is 86%.

Withanamide E [Compound 5] was tested. Which “inhibition of lipid peroxidation” value [1] did it give?
Its value is 81%.

Withanamide H [Compound 8] was tested. Which “inhibition of lipid peroxidation” value [3] did it give?
The value was 90%.

With Withanamide B [Compound 2] as the compound, how does the “inhibition of lipid peroxidation” value [1] read?
Its value is 93%.

How did the “inhibition of lipid peroxidation” value [1] turn out when `COc1ccc(O)c(C(C)(C)C)c1` [BHA, butylated hydroxyanisole, reference compound] was run?
Its value is 80%.

`CC1CC([C@](C)(O)C2CCC3C4CC=C5C[C@@H](OC6OC(COC7OC(CO)C(O)C(O)C7O)C(O)C(O)C6O)C[C@H](O)C5(C)C4CCC32C)OC(=O)C1C` (stereo partly drawn) [Compound 10, 23,24-Dihydrowithanolide VI] was tested. Which “inhibition of lipid peroxidation” value [4] did it give?
Its value is 84%.

For `Cc1cc(C(C)(C)C)c(O)c(C(C)(C)C)c1` [BHT, butylated hydroxytoluene, reference compound], which “inhibition of lipid peroxidation” value [1] is on record?
The value was 81%.

How did the “inhibition of lipid peroxidation” value [3] turn out when Withanamide F [Compound 6] was run?
The value was 85%.

Which “inhibition of lipid peroxidation” value [4] does the source give for `NCCc1c[nH]c2ccccc12` [Compound 14, tryptamine, reference compound] here?
The value was 40%.

With `Cl.NCCc1c[nH]c2ccc(O)cc12` [Compound 16, serotonine, reference compound] as the compound, how does the “inhibition of lipid peroxidation” value [5] read?
Its value is 44%.

Which “inhibition of lipid peroxidation” value [1] does the source give for Withanamide C [Compound 3] here?
Its value is 79%.

How did the “inhibition of lipid peroxidation” value [4] turn out when `CC1=C(CO)C(=O)O[C@@H]([C@@H](C)[C@H]2CC[C@H]3[C@@H]4CC=C5C[C@@H](O[C@@H]6O[C@H](CO[C@@H]7O[C@H](CO)[C@@H](O)[C@H](O)[C@H]7O)[C@@H](O)[C@H](O)[C@H]6O)C[C@H](O)[C@]5(C)[C@H]4CC[C@]23C)C1` [Compound 13, withanoside IV] was run?
Its value is 25%.

How did the “inhibition of lipid peroxidation” value [2] turn out when `COc1ccc2[nH]cc(CCN)c2c1` [Compound 15, 5-methoxyserotonine, reference compound] was run?
Its value is 30%.

For Withanamide G [Compound 7], which “inhibition of lipid peroxidation” value [3] is on record?
Its value is 82%.

Which “inhibition of lipid peroxidation” value [1] does the source give for Withanamide D [Compound 4] here?
The value was 94%.

Withanamide I [Compound 9] was tested. Which “inhibition of lipid peroxidation” value [1] did it give?
The value was 86%.

Which results are given for `CC1=C(C)C(=O)O[C@@H]([C@@H](C)[C@H]2CC[C@H]3[C@@H]4CC=C5C[C@@H](O[C@@H]6O[C@H](CO[C@@H]7O[C@H](CO)[C@@H](O)[C@H](O)[C@H]7O)[C@@H](O)[C@H](O)[C@H]6O)C[C@H](O)[C@]5(C)[C@H]4CC[C@]23C)C1` [Compound 12, Withanoside V]?
inhibition of lipid peroxidation [5]: 82%; inhibition of lipid peroxidation (at 10 ppm): 82.5%

How did the “inhibition of lipid peroxidation” value [1] turn out when `CC(C)(C)c1cc(O)ccc1O` [TBHQ, tert-butylhydroquinone, reference compound] was run?
The value was 85%.
